From PubChem BioAssay AID493191 (Broad Institute, 2011)

System: MALME3 melanoma viability, CellTiter-Glo luminescence, 24 h
Assay: growth inhibition of MALME3 cells – cell-based, CellTiter-Glo, cherry-picked, orthogonal assay for MITF inhibitor project, dose response (AID 493191)

## CC(C)C1CC(CCNCc2ccc(N(C)C)cc2)(c2ccccc2)CCO1 (configuration not stated)
  AC50: 29.5 µM

## Cc1ccc(C(O)(c2ccc(C)c(C)c2)C2CN3CCC2CC3)cc1C (configuration not stated)
  AC50: 22.7 µM

## O=C(N/N=C/c1ccc([N+](=O)[O-])s1)c1ccccc1Br
  AC50: 26.9 µM

## CC1CCC(C(C)C)C(OC(=O)Cn2c(-c3ccc(Cl)cc3)[n+](C)c3ccccc32)C1 (configuration not stated)
  AC50: 11.7 µM

## CCOC(=O)N1C(=O)[C@@](CC)(c2ccccc2)N1C(=O)OCC
  AC50: 26.2 µM

## Cc1c(N=C2C=CC(=O)c3ccccc32)c(=O)n(-c2ccccc2)n1C
  AC50: 32 µM

## CCOC(=O)CSC1=NC(=O)/C(=C\c2ccc(Cl)cc2)S1
  AC50: 16.2 µM

## CC(C)(C)C(=O)/C(=C/c1ccncc1)n1cncn1
  AC50: 21.9 µM

## Cc1ccc(Oc2c(C(N)=O)cc([N+](=O)[O-])cc2[N+](=O)[O-])cc1
  AC50: 25.9 µM

## CS(=O)(=O)c1ncc(Cl)c(C(=O)Nc2ccc3ccccc3c2)n1
  AC50: 15.2 µM

## O=C(N/N=C/c1ccc([N+](=O)[O-])s1)c1cccc(Br)c1
  AC50: 29.9 µM

## O=C(/C=C/c1ccc(Cl)cc1)c1ccc([N+](=O)[O-])o1
  AC50: 24.5 µM

## CCCCN1C=CC(=C2C(=O)c3ccccc3C2=O)C=C1
  AC50: 27.3 µM

## O=C1C(Nc2ccccc2)=C(N2CCCCC2)C(=O)c2ccccc21
  AC50: 18.2 µM

## CC1CCCC(NCC(O)COC(c2ccc(F)cc2)c2ccc(F)cc2)C1C (configuration not stated)
  AC50: 20.5 µM

## COc1ccccc1-c1cc(C(F)(F)F)nc(S(C)(=O)=O)n1
  AC50: 19.6 µM

## O=C(CCl)N1CCN(S(=O)(=O)c2ccc3c(c2)CCC3)CC1
  AC50: 25.5 µM

## CCN1CCN(C2=C(NS(=O)(=O)c3ccc(Br)cc3)C(=O)c3ccccc3C2=O)CC1
  AC50: 20.1 µM

## COc1ccccc1NC(=O)c1nc(S(=O)(=O)Cc2ccccc2)ncc1Cl
  AC50: 6.97 µM

## c1ccc(CSc2nnc(-c3ccco3)n2Cc2ccco2)cc1
  AC50: 26.4 µM

## N#CC(C#N)=C1C=CC=CN1/C(=C\c1ccco1)C(=O)c1ccc(Cl)cc1
  AC50: 27.3 µM

## Cc1cc(C)cc(NC(=O)c2ccc([N+](=O)[O-])o2)c1
  AC50: 17.9 µM

## Oc1c(CN2CCCCC2)cc(COCc2ccccc2)c2cccnc12
  AC50: 10.4 µM

## Cc1ccc(C(=O)N/C(=C\c2ccc(-c3ccc(Br)cc3)o2)C(=O)NCCCN(C)C)cc1
  AC50: 14.2 µM

## CN(C)CCNC(=O)/C(=C/c1ccc(-c2ccc(Cl)cc2Cl)o1)NC(=O)c1ccccc1
  AC50: 18 µM

## Cc1[nH]c2ccccc2c1C(=O)CCl
  AC50: 27.6 µM

## Cc1ccc2sc(N(CCCN(C)C)C(=O)c3ccc(S(=O)(=O)N(C)C4CCCCC4)cc3)nc2c1C
  AC50: 18.1 µM

## O=C(N/N=C/c1ccc([N+](=O)[O-])o1)c1cc2ccccc2o1
  AC50: 10.5 µM

## Cc1ccc(-c2nc(C(=O)NCCCN(C)C)cc3c2[nH]c2ccccc23)cc1
  AC50: 31.1 µM

## Cc1ccc(NC(=O)c2ncn(CCCN[C@H](C)c3cccc4ccccc34)n2)cc1C
  AC50: 29.2 µM

## CCC(C)(C)c1ccc(OCCCC[n+]2ccccc2)c(C(C)(C)CC)c1
  AC50: 10.8 µM

## CC1(C)CC(NC(=O)c2ccc(Cl)c(S(=O)(=O)N(Cc3ccccc3)c3ccccc3)c2)CC(C)(C)N1
  AC50: 22.7 µM

## CC1=CC2/C=C(\C)CCC(O)C(O)/C=C/C(=O)C23C(=O)NC(CC(C)C)C3C1C (configuration not stated)
  AC50: 12.6 µM

## CCC(=O)N1CCN(c2ccc(NC(=O)c3ccc([N+](=O)[O-])o3)cc2Cl)CC1
  AC50: 9.97 µM

## CNC(=O)COC(=O)c1ccccc1C(=O)c1ccc(Cl)c([N+](=O)[O-])c1
  AC50: 23.8 µM

## O=C(Nc1ccc(S(=O)(=O)NC2=NCCCCC2)cc1)c1ccc([N+](=O)[O-])s1
  AC50: 18.4 µM

## COC(=O)C1=C(C)N(Cc2ccccc2)C(=NCC(C)C)N[C@H]1c1cccc(C(F)(F)F)c1
  AC50: 16.9 µM

## O=C(Nc1cc(-c2nc3ncccc3o2)ccc1Cl)c1ccc([N+](=O)[O-])o1
  AC50: 18.2 µM

## CCN1CCCC1CNC(=O)c1ccc2c(c1)NC(=O)/C(=C\c1ccc(C)cc1)S2 (configuration not stated)
  AC50: 26 µM

## N=c1n(CCN2CCCC2)c2ccccc2n1CC(O)c1ccc(Cl)c(Cl)c1 (configuration not stated)
  AC50: 22.5 µM

## FC(F)(F)c1cc(CCN2CCNC[C@@H]2Cc2ccccc2)cc(C(F)(F)F)c1
  AC50: 19.3 µM

## CN1CCN(c2ccc(NC(=O)c3ccc([N+](=O)[O-])o3)cc2Cl)CC1
  AC50: 21.3 µM

## Cc1ccc(NC2=C(Cl)C(=O)c3ccccc3C2=O)cc1
  AC50: 6.96 µM

## CCC(=O)N1CCN(c2ccc(NC(=O)c3ccc([N+](=O)[O-])o3)cc2)CC1
  AC50: 12.7 µM

## CC1CCN(CC(CS(=O)(=O)c2ccc([N+](=O)[O-])cc2)N2CCC(C)CC2)CC1 (configuration not stated)
  AC50: 18.9 µM

## O=C1Nc2cc(C(=O)NCCN3CCCCCC3)ccc2S/C1=C\c1ccccc1
  AC50: 28.4 µM

## O=C1C(Cl)=C(Nc2ccccc2)C(=O)c2ccccc21
  AC50: 5.66 µM

## COC1=C(c2ccccc2)C(=O)c2ccccc2C1=O
  AC50: 20.3 µM

## CCOC(=O)c1ccc(NC(=O)c2nc(S(=O)(=O)Cc3ccccc3)ncc2Cl)cc1
  AC50: 4.47 µM

## Cc1ccc(NC(=O)c2cc(N3C(=O)C=CC3=O)ccc2N2CCOCC2)cc1Cl
  AC50: 23.5 µM

## CC(NC(=O)C12CC3CC(CC(C3)C1)C2)C(=O)NN=Cc1ccc([N+](=O)[O-])o1 (configuration not stated)
  AC50: 26.9 µM

## O=C(Nc1ccccc1N1CCOCC1)c1ccc([N+](=O)[O-])s1
  AC50: 30.9 µM

## CC(=O)N1CCc2c(sc(NC(=O)c3ccc([N+](=O)[O-])o3)c2C#N)C1
  AC50: 9.37 µM

## Cc1ccccc1C(=O)N/N=C/c1ccc([N+](=O)[O-])s1
  AC50: 30.9 µM

## O=C(C#Cc1ccccc1)c1cccc([N+](=O)[O-])c1
  AC50: 10.8 µM

## O=C(COc1ccc(Cl)cc1Cl)Nc1ccccn1
  AC50: 14.5 µM

## CC(=O)Nc1ccc(NC(=O)c2nc(S(=O)(=O)Cc3ccccc3)ncc2Cl)cc1
  AC50: 5.12 µM

## O=C(NCC1CCCCC1)C1(CC2CC(c3cccc(Br)c3)=NO2)CCNCC1 (configuration not stated)
  AC50: 24.4 µM

## CC(=O)N(C)C1=C(N2CCOCC2)C(=O)c2ccccc2C1=O
  AC50: 12.7 µM

## Cc1cc(C)c[n+](C2=C([O-])c3ccccc3C(=O)/C2=N\S(=O)(=O)c2cccs2)c1
  AC50: 9.5 µM

## CC(C)(c1ccccc1)c1ccc(OCC(O)CNC2CCN(Cc3ccccc3)CC2)cc1 (configuration not stated)
  AC50: 13.5 µM

## CC(C)(C)C(=O)Cn1ncc(Cl)c(Cl)c1=O
  AC50: 18 µM

## COc1ccc(C(=O)/C=C/C(=O)N(CC(=O)NC2CCCCC2)Cc2ccccc2)c(O)c1
  AC50: 6.88 µM

## Cc1cc2ncn(/N=C/c3ccc([N+](=O)[O-])o3)c2cc1C
  AC50: 15.9 µM

## CCCC(=O)N1CCN(c2ccc(NC(=O)c3ccc([N+](=O)[O-])o3)cc2)CC1
  AC50: 8.62 µM

## CC(C)C(=O)N1CCN(c2ccc(NC(=O)c3ccc([N+](=O)[O-])o3)cc2)CC1
  AC50: 12.8 µM

## CN1CCN(C2=C(NS(=O)(=O)c3ccccc3)C(=O)c3ccccc3C2=O)CC1
  AC50: 11.2 µM

## O=[N+]([O-])c1ccc(/C=N/N=C/c2ccc([N+](=O)[O-])o2)o1
  AC50: 12.9 µM

## CCN(CC)CCCNC1=C(Cl)C(=O)c2ccccc2C1=O
  AC50: 5.64 µM

## CC1CN(C(=O)CCC(=O)NCCCN2CCC(Cc3ccccc3)CC2)c2cc(Cl)ccc2O1 (configuration not stated)
  AC50: 19.4 µM

## O=C(NC1CCCC(C(F)(F)F)C1)c1ccc([N+](=O)[O-])o1 (configuration not stated)
  AC50: 20.8 µM

## O=C(Cn1ncc(Cl)c(Cl)c1=O)NCC1CCCCC1
  AC50: 9.94 µM

## O=C(N/N=C/c1cccc2cccnc12)c1ccccc1O
  AC50: 29.7 µM

## Cc1ccccc1-c1nc(-c2ccccn2)no1
  AC50: 22.2 µM

## CCOc1cc(/C=N/N=C(N)N)ccc1OCc1ccc(Cl)cc1
  AC50: 18.8 µM

## CCN(CC)CCNC(=O)C1CCN(S(=O)(=O)c2c(C)noc2/C=C/c2ccccc2F)CC1
  AC50: 30.4 µM

## CC(C)(C)C(=O)Cn1ncc(Br)c(Br)c1=O
  AC50: 17.7 µM

## O=C(/C=C/c1ccc([N+](=O)[O-])s1)N1CCCCC1
  AC50: 30.7 µM

## COc1cc(NC(=O)c2[nH]cnc2C(N)=O)cc(C(=O)Nc2cccc(C(F)(F)F)c2)c1
  AC50: 11.2 µM

## COc1ccc(C(=O)/C=C/C(=O)N(CC(=O)NC2CCCCC2)CC2CCCO2)c(O)c1 (configuration not stated)
  AC50: 4.8 µM

## Cn1c(SC2=CS(=O)(=O)c3ccccc32)nc2ccccc21
  AC50: 19.7 µM

## CCCCCCCNC(=O)C1(CC2CC(c3ccc(Cl)cc3)=NO2)CCNCC1 (configuration not stated)
  AC50: 15.2 µM

## Cc1ccc(NC(=O)CN(C)C(=O)Cn2ncc(Cl)c(Cl)c2=O)cc1
  AC50: 8.81 µM

## O=C(N/N=C\c1ccc([N+](=O)[O-])s1)c1cncc(Br)c1
  AC50: 20.2 µM

## O=C1CN(C(=O)Cn2ncc(Cl)c(Cl)c2=O)c2ccccc2N1
  AC50: 15.4 µM

## S=C=Nc1cccc(C2(N3CCCCC3)CCCCC2)c1
  AC50: 26 µM

## CCOC(=O)c1cc([N+](=O)[O-])c([N+](=O)[O-])cc1NC(C)=O
  AC50: 29.9 µM

## COc1ccc(S(=O)(=O)N(C(C)=O)c2ccc(OC(C)=O)c3ccccc23)cc1[N+](=O)[O-]
  AC50: 18.1 µM

## COC1=C(Nc2ccccc2)C(=O)c2ccccc2C1=O
  AC50: 22 µM

## Cc1ccc(S(=O)(=O)N2CCCCC2)cc1NC(=O)Cn1ncc(Cl)c(Cl)c1=O
  AC50: 6.08 µM

## N#C/C(=C(/O)c1ccc([N+](=O)[O-])o1)c1nc2ccccc2[nH]1
  AC50: 9.62 µM

## O=C(CNc1cccc2ccccc12)N/N=C/c1ccc([N+](=O)[O-])o1
  AC50: 16.3 µM

## CCCOCc1ccc(O)c2ncccc12
  AC50: 32.2 µM

## CCN1CCN(C2=C(NS(=O)(=O)c3ccc(C)cc3)C(=O)c3ccccc3C2=O)CC1
  AC50: 11.9 µM

## COc1ccc2oc(C(=O)Nc3ccc(S(=O)(=O)N(C)C4CCN(C)CC4)cc3)c(C)c2c1
  AC50: 33.5 µM

## Cn1nnnc1Sc1ncnc2scc(-c3ccc(C#N)cc3)c12
  AC50: 28.5 µM

## COc1cccc(C(=O)Oc2c(CN3CCOCC3)cc(Cl)c3cccnc23)c1
  AC50: 30.7 µM

## Cc1ccc(NC(=O)c2ccc([N+](=O)[O-])o2)cc1S(=O)(=O)N1CCOCC1
  AC50: 26.1 µM

## CCN1/C(=C/c2cc[n+](C)cc2)C=Cc2cc(C)ccc21
  AC50: 16.9 µM

## CCN1CCN(c2ccc(NC(=O)c3ccc([N+](=O)[O-])o3)cc2Cl)CC1
  AC50: 14.4 µM

## O=C(Nc1cccc(S(=O)(=O)N2CCCCC2)c1)c1ccc([N+](=O)[O-])o1
  AC50: 15.9 µM

## Cc1nc2ccccn2c1C(=O)N/N=C/c1ccc([N+](=O)[O-])o1
  AC50: 34 µM

## O=C(CCl)Nc1cccc(Oc2ccccc2)c1
  AC50: 28.7 µM

## CC1CCC/C=C/C(=O)c2c(O)cc(O)cc2CC(=O)O1 (configuration not stated)
  AC50: 21.2 µM

## COc1ccc(Oc2cc(NC(=O)c3nn(C)cc3[N+](=O)[O-])cc([N+](=O)[O-])c2)cc1
  AC50: 17.7 µM

## N=c1n(CC(=O)c2ccc([N+](=O)[O-])cc2)c2ccccc2n1Cc1ccc(Cl)cc1
  AC50: 17.2 µM

## COc1ccc(C(=O)/C=C/C(=O)N(CC(=O)NC2CCCCC2)Cc2ccc(F)cc2)c(O)c1
  AC50: 7.85 µM
